The target in this assay is T1, Recombinant human cathepsin A (Homo sapiens, UniProt P10619).
T1 construct: Recombinant human cathepsin A (residues 29-480, with a C-terminal 10-His tag); 10-His (C); purchased R&D Systems 1049-SE
T1 sequence (P10619 29-312 limits assumed): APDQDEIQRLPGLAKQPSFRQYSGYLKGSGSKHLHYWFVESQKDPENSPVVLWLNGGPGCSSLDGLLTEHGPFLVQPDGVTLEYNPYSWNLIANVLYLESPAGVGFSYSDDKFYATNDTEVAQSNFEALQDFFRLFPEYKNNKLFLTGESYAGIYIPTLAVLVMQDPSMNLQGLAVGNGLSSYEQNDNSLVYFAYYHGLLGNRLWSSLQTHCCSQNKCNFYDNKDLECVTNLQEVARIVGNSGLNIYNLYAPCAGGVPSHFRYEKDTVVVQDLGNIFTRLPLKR
T1 sequence (P10619 327-480 limits assumed): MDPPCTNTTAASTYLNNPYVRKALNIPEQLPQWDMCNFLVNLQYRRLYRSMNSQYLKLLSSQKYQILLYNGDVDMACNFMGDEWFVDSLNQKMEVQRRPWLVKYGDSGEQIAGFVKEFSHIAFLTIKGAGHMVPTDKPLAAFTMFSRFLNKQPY
The experiment in a line: Cathepsin A inhibitory activity. The assay is classed as biochemical. An outline of the steps:
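Read-out was microfluidic separation of cleaved vs. uncleaved Bodipy FL-bradykinin (2 μM), giving turnover, % inhibition and IC50. Compound and 833 ng/ml enzyme met for 15 min RT in pH 5.5 MES/DTT before substrate (15 min RT). The 29-480 His-tagged human enzyme was first activated by cathepsin L, then E-64 (10 μM).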

The mark [1] stands for this setting: recombinant human cathepsin A 833 ng/ml, Bodipy FL-labeled bradykinin 2 μM, pH 5.5, read-out: CATH-A IC50.
Where [2] appears, read: recombinant human cathepsin A, read-out: Activity (2): Cathepsin A inhibitory activity, IC50 class.

The structures appear in SMILES notation. Like-named read-outs stand apart in the source and are kept apart here.

As usually defined, the IC50 is the concentration at which inhibition is half-maximal. For the compound `O=C(O)CC(NC(=O)c1cc(O)n(-c2ccccc2)n1)c1cc(F)ccc1C(F)(F)F` (centres unmarked) [Example 443, 3-(5-Fluoro-2-trifluoromethyl-phenyl)-3-[(5-hydroxy-1-phenyl-1H-pyrazole-3-carbonyl)-amino]-propionic acid], the IC50 was 220 nM under setting [1] and 100 to 1000 nM under setting [2].
The matching figures for `O=C(O)CC(NC(=O)c1cc(O)n(-c2ccccc2)n1)c1cc(Cl)ccc1Cl` (centres unmarked) [Example 444, 3-(2,5-Dichloro-phenyl)-3-[(5-hydroxy-1-phenyl-1H-pyrazole-3-carbonyl)-amino]-propionic acid]: 83.1 nM and under 100 nM.
Take `Cc1ccc([C@H](CC(=O)O)NC(=O)c2cc(O)n(-c3ccccc3)n2)cc1` [Example 445, (S)-3-[(5-Hydroxy-1-phenyl-1H-pyrazole-3-carbonyl)-amino]-3-p-tolyl-propionic acid]: the half-inhibitory concentration (IC50) reads like this: under setting [1], 130 nM; under setting [2], 100 to 1000 nM.
On the same counts, the results for `O=C(O)C[C@H](NC(=O)c1cc(O)n(-c2ccccc2)n1)c1ccccc1Cl` [Example 446, (S)-3-(2-Chloro-phenyl)-3-[(5-hydroxy-1-phenyl-1H-pyrazole-3-carbonyl)-amino]-propionic acid] are 120 nM and 100 to 1000 nM.
For the compound `Cc1c(F)cccc1C(CC(=O)O)NC(=O)c1cc(O)n(-c2ccc(F)cc2F)n1` (centres unmarked) [Example 447, 3-{[1-(2,4-Difluoro-phenyl)-5-hydroxy-1H-pyrazole-3-carbonyl]-amino}-3-(3-fluoro-2-methyl-phenyl)-propionic acid], the concentration for half-maximal inhibition (IC50) was 114 nM under setting [1] and 100 to 1000 nM under setting [2].
Turning to `CN(C)c1ccc(C(CC(=O)O)NC(=O)c2cc(O)n(-c3ccc(F)cc3F)n2)c(Cl)c1` (centres unmarked) [Example 448, 3-(2-Chloro-4-dimethylamino-phenyl)-3-{[1-(2,4-difluoro-phenyl)-5-hydroxy-1H-pyrazole-3-carbonyl]-amino}-propionic acid], the IC50 reads like this: under setting [1], 884 nM; under setting [2], 100 to 1000 nM.
In the case of `COc1cccc(F)c1C(CC(=O)O)NC(=O)c1cc(O)n(-c2ccc(F)cc2F)n1` (centres unmarked) [Example 449, 3-{[1-(2,4-Difluoro-phenyl)-5-hydroxy-1H-pyrazole-3-carbonyl]-amino}-3-(2-fluoro-6-methoxy-phenyl)-propionic acid], the IC50 under setting [1] came to 176 nM and the IC50 under setting [2] is 100 to 1000 nM.
As for `O=C(O)CC(NC(=O)c1cc(O)n(-c2ccc(F)cc2F)n1)c1cccc2c1OC(F)(F)O2` (centres unmarked) [Example 450, 3-(2,2-Difluoro-benzo[1,3]dioxol-4-yl)-3-{[1-(2,4-difluoro-phenyl)-5-hydroxy-1H-pyrazole-3-carbonyl]-amino}-propionic acid], the IC50 was 409 nM under setting [1] and 100 to 1000 nM under setting [2].
Turning to `O=C(O)CC(NC(=O)c1cc(O)n(-c2ccc(F)cc2F)n1)c1cc(F)ccc1F` (centres unmarked) [Example 451, 3-(2,5-Difluoro-phenyl)-3-{[1-(2,4-difluoro-phenyl)-5-hydroxy-1H-pyrazole-3-carbonyl]-amino}-propionic acid], the half-maximal inhibitory concentration (IC50) was 233 nM under setting [1] and 100 to 1000 nM under setting [2].
On the same counts, the results for `O=C(O)CC(NC(=O)c1cc(O)n(-c2ccc(F)cc2F)n1)c1cc(F)ccc1C(F)(F)F` (centres unmarked) [Example 452, 3-{[1-(2,4-Difluoro-phenyl)-5-hydroxy-1H-pyrazole-3-carbonyl]-amino}-3-(5-fluoro-2-trifluoromethyl-phenyl)-propionic acid] are 139 nM and 100 to 1000 nM.
On the same counts, the results for `COc1ccc(F)cc1C(CC(=O)O)NC(=O)c1cc(O)n(-c2ccc(F)cc2F)n1` (centres unmarked) [Example 453, 3-{[1-(2,4-Difluoro-phenyl)-5-hydroxy-1H-pyrazole-3-carbonyl]-amino}-3-(5-fluoro-2-methoxy-phenyl)-propionic acid] are 249 nM and 100 to 1000 nM.
For `Cc1ccc([C@H](CC(=O)O)NC(=O)c2cc(O)n(-c3ccc(F)cc3F)n2)cc1` [Example 454, (S)-3-{[1-(2,4-Difluoro-phenyl)-5-hydroxy-1H-pyrazole-3-carbonyl]-amino}-3-p-tolyl-propionic acid], the IC50 runs as follows: under setting [1], 186 nM; under setting [2], 100 to 1000 nM.
Consider `Cc1c(F)cccc1C(CC(=O)O)NC(=O)c1cc(O)n(-c2ccccc2Cl)n1` (centres unmarked) [Example 455, 3-{[1-(2-Chloro-phenyl)-5-hydroxy-1H-pyrazole-3-carbonyl]-amino}-3-(3-fluoro-2-methyl-phenyl)-propionic acid], for which the IC50 reads like this: under setting [1], 154 nM; under setting [2], 100 to 1000 nM.
Turning to `CN(C)c1ccc(C(CC(=O)O)NC(=O)c2cc(O)n(-c3ccccc3Cl)n2)c(Cl)c1` (centres unmarked) [Example 456], the concentration for half-maximal inhibition (IC50) under setting [2] lay within 1000 to 30000 nM.
In the case of `COc1cccc(F)c1C(CC(=O)O)NC(=O)c1cc(O)n(-c2ccccc2Cl)n1` (centres unmarked) [Example 457, 3-{[1-(2-Chloro-phenyl)-5-hydroxy-1H-pyrazole-3-carbonyl]-amino}-3-(2-fluoro-6-methoxy-phenyl)-propionic acid], the IC50 under setting [1] amounted to 170 nM and the IC50 under setting [2] fell in the range of 100 to 1000 nM.
On the same counts, the results for `O=C(O)CC(NC(=O)c1cc(O)n(-c2ccccc2Cl)n1)c1cc(F)ccc1Cl` (centres unmarked) [Example 458, 3-(2-Chloro-5-fluoro-phenyl)-3-{[1-(2-chloro-phenyl)-5-hydroxy-1H-pyrazole-3-carbonyl]-amino}-propionic acid] are 223 nM and 100 to 1000 nM.
With `O=C(O)CC(NC(=O)c1cc(O)n(-c2ccccc2Cl)n1)c1cc(F)ccc1F` (centres unmarked) [Example 459, 3-{[1-(2-Chloro-phenyl)-5-hydroxy-1H-pyrazole-3-carbonyl]-amino}-3-(2,5-difluoro-phenyl)-propionic acid], the 50% inhibitory concentration (IC50) was 128 nM under setting [1] and 100 to 1000 nM under setting [2].
Turning to `O=C(O)CC(NC(=O)c1cc(O)n(-c2ccccc2Cl)n1)c1cc(F)ccc1C(F)(F)F` (centres unmarked) [Example 460, 3-{[1-(2-Chloro-phenyl)-5-hydroxy-1H-pyrazole-3-carbonyl]-amino}-3-(5-fluoro-2-trifluoromethyl-phenyl)-propionic acid], the IC50 reads like this: under setting [1], 118 nM; under setting [2], 100 to 1000 nM.
On the same counts, the results for `Cc1ccc(F)cc1C(CC(=O)O)NC(=O)c1cc(O)n(-c2ccccc2Cl)n1` (centres unmarked) [Example 461, 3-{[1-(2-Chloro-phenyl)-5-hydroxy-1H-pyrazole-3-carbonyl]-amino}-3-(5-fluoro-2-methyl-phenyl)-propionic acid] are 151 nM and 100 to 1000 nM.
On the same counts, the results for `O=C(O)CC(NC(=O)c1cc(O)n(-c2ccccc2Cl)n1)c1cc(Cl)ccc1Cl` (centres unmarked) [Example 462, 3-{[1-(2-Chloro-phenyl)-5-hydroxy-1H-pyrazole-3-carbonyl]-amino}-3-(2,5-dichloro-phenyl)-propionic acid] are 80.4 nM and under 100 nM.
Consider `CN(C)c1ccc(C(CC(=O)O)NC(=O)c2cc(O)n(-c3cccc(Cl)c3)n2)c(Cl)c1` (centres unmarked) [Example 463, 3-(2-Chloro-4-dimethylamino-phenyl)-3-{[1-(3-chloro-phenyl)-5-hydroxy-1H-pyrazole-3-carbonyl]-amino}-propionic acid], for which the IC50 by setting is: under setting [1], 11100 nM; under setting [2], 1000 to 30000 nM.
Consider `O=C(O)CC(NC(=O)c1cc(O)n(-c2cccc(Cl)c2)n1)c1cccc2c1OC(F)(F)O2` (centres unmarked) [Example 464, 3-{[1-(3-Chloro-phenyl)-5-hydroxy-1H-pyrazole-3-carbonyl]-amino}-3-(2,2-difluoro-benzo[1,3]dioxol-4-yl)-propionic acid], for which the IC50 runs as follows: under setting [1], 274 nM; under setting [2], 100 to 1000 nM.
Regarding `O=C(O)CC(NC(=O)c1cc(O)n(-c2cccc(Cl)c2)n1)c1cc(F)ccc1F` (centres unmarked) [Example 465, 3-{[1-(3-Chloro-phenyl)-5-hydroxy-1H-pyrazole-3-carbonyl]-amino}-3-(2,5-difluoro-phenyl)-propionic acid], the IC50 is, setting by setting: under setting [1], 738 nM; under setting [2], 100 to 1000 nM.
As to `O=C(O)CC(NC(=O)c1cc(O)n(-c2cccc(Cl)c2)n1)c1cc(F)ccc1C(F)(F)F` (centres unmarked) [Example 466, 3-{[1-(3-Chloro-phenyl)-5-hydroxy-1H-pyrazole-3-carbonyl]-amino}-3-(5-fluoro-2-trifluoromethyl-phenyl)-propionic acid], the IC50 is 562 nM under setting [1] and 100 to 1000 nM under setting [2].
For `O=C(O)CC(NC(=O)c1cc(O)n(-c2cccc(Cl)c2)n1)c1ccccc1SC(F)(F)F` (centres unmarked) [Example 467, 3-{[1-(3-Chloro-phenyl)-5-hydroxy-1H-pyrazole-3-carbonyl]-amino}-3-(2-trifluoromethylsulfanyl-phenyl)-propionic acid], the IC50 was 2250 nM under setting [1] and 1000 to 30000 nM under setting [2].
For `Cc1c(F)cccc1C(CC(=O)O)NC(=O)c1cc(O)n(-c2ccc(Cl)cc2)n1` (centres unmarked) [Example 468, 3-{[1-(4-Chloro-phenyl)-5-hydroxy-1H-pyrazole-3-carbonyl]-amino}-3-(3-fluoro-2-methyl-phenyl)-propionic acid], the IC50 under setting [1] came out at 280 nM and the IC50 under setting [2] fell in the range of 100 to 1000 nM.
As for `COc1cccc(F)c1C(CC(=O)O)NC(=O)c1cc(O)n(-c2ccc(Cl)cc2)n1` (centres unmarked) [Example 469, 3-{[1-(4-Chloro-phenyl)-5-hydroxy-1H-pyrazole-3-carbonyl]-amino}-3-(2-fluoro-6-methoxy-phenyl)-propionic acid], the IC50 is 860 nM under setting [1] and 100 to 1000 nM under setting [2].

The record behind these values is patent publication US8664257B2, “Oxygen-substituted 3-heteroaroylamino-propionic acid derivatives and their use as pharmaceuticals” (Sanofi, priority 2010, dated 2014).
